# Experimental data: patent publication US9617283B2, “Bicyclic heterocycle compounds and their uses in therapy” (ASTEX THERAPEUTICS LIMITED, priority 2012, dated 2017)
# Where a name gives a salt, the structure may show the parent alone. Read-outs that look alike come from different tables or passages of the source.
# Experiments:
# [1] = test system: EVSA-T (human breast carcinoma); assay: Anti-proliferative activity, Alamar Blue assay, EVSA-T; type: cell-based
# Method: Anti-Proliferative Activity
# The method is based on the ability of viable cells to reduce resazurin to its fluorescent product resorufin. For each proliferation assay cells are plated onto 96 well plates and allowed to recover for 16 hours prior to the addition of inhibitor compounds (in 0.1% DMSO v/v) for a further 72 hours. […] The anti-proliferative activities of compounds of the invention can be determined by measuring the ability of the compounds to inhibit growth in 3 cancer cell lines: • EVSA-T (human breast carcinoma) DSMZ cat. no.
# [2] = target: T1, BIR3 domain of human XIAP (residues 252-350) (Homo sapiens, UniProt P98170); assay: XIAP in vitro competitive displacement binding assay (fluorescence polarization); conditions: 1 h, percent inhibition (PI) at 0.04 μM; read-out: Xiap IC50 or PI μM
# T1 construct: BIR3 domain of human XIAP (residues 252-350); His-tag (cleaved yes); made in house; host or cells: Escherichia coli
# [3] = Homo sapiens, EVSA-T, 72 h, EVSA-T cell line, 72 hours, Alamar Blue; read-out: EVSA-T prolif
# [4] = Homo sapiens, EVSA-T; read-out: EC50 in EVSA-T cell line assays
# [5] = Homo sapiens, EVSA-T, read-out: EC50 in EVSA-T cell line assays
# T1 sequence (P98170 252-350): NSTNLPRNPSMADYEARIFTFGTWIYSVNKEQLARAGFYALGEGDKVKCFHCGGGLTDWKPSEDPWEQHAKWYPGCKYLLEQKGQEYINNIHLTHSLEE
smiles,measurement,setting,value
"C[C@@H]1CN(CC(=O)N2CC(C)(C)c3ncc(Cc4ccc(F)cc4F)cc32)[C@@H](CN2Cc3cc(C#N)ccc3C2=O)CN1 [Example 106, 2-{[(2R,5R)-1-(2-{6-[(2,4-Difluorophenyl)methyl]-3,3-dimethyl-1H,2H,3H-pyrrolo[3,2-b]pyridin-1-yl}-2-oxoethyl)-5-methylpiperazin-2-yl]methyl}-1-oxo-2,3-dihydro-1H-isoindole-5-carbonitrile dihydrochloride]",EC50,[1]; [3],2.1 nM
same,EC50,[1]; [4],< 1000 nM
same,inhibition at 0.04 µM,[2],90%
"C[C@@H]1CN(CC(=O)N2CC(C)(C)c3cnc(Cc4ccc(F)cc4)cc32)[C@@H](CN2Cc3ccccc3C2=O)CN1 [Example 60, 2-{[(2R,5R)-1-(2-{6-[(4-Fluorophenyl)methyl]-3,3-dimethyl-1H,2H,3H-pyrrolo[3,2-c]pyridin-1-yl}-2-oxoethyl)-5-methylpiperazin-2-yl]methyl}-2,3-dihydro-1H-isoindol-1-one dihydrochloride]",EC50,[1]; [3],0.29 nM
same,EC50,[1]; [4],< 1000 nM
same,inhibition at 0.04 µM,[2],94%
"CCCC(F)(F)c1cc2c(cn1)C(C)(C)CN2C(=O)CN1C[C@@H](C)NC[C@@H]1CN1C[C@H](C)CC1=O [Example 72, (4R)-1-{[(2R,5R)-1-{2-[6-(1,1-Difluorobutyl)-3,3-dimethyl-1H,2H,3H-pyrrolo[3,2-c]pyridin-1-yl]-2-oxoethyl}-5-methylpiperazin-2-yl]methyl}-4-methylpyrrolidin-2-one dihydrochloride]",EC50,[1]; [3],27 nM
same,EC50,[1]; [4],< 1000 nM
same,inhibition at 0.04 µM,[2],79%
"CCCC(F)(F)c1cc2c(nn1)C(C)(C)CN2C(=O)CN1C[C@@H](C)NC[C@@H]1CN1Cc2ccc(F)cc2C1=O [Example 99, 2-{[(2R,5R)-1-{2-[3-(1,1-Difluorobutyl)-7,7-dimethyl-5H,6H,7H-pyrrolo[3,2-c]pyridazin-5-yl]-2-oxoethyl}-5-methylpiperazin-2-yl]methyl}-6-fluoro-2,3-dihydro-1H-isoindol-1-one dihydrochloride]",EC50,[1]; [3],6.6 nM
same,EC50,[1]; [4],< 1000 nM
same,inhibition at 0.04 µM,[2],65%
"CC1=C(C)C(=O)N(C[C@H]2CN[C@H](C)CN2CC(=O)N2CC(C)(C)c3nnc(Cc4ccc(F)cc4F)cc32)C1 [Example 50, 1-{[(2R,5R)-1-(2-{3-[(2,4-Difluorophenyl)methyl]-7,7-dimethyl-5H,6H,7H-pyrrolo[3,2-c]pyridazin-5-yl}-2-oxoethyl)-5-methylpiperazin-2-yl]methyl}-3,4-dimethyl-2,5-dihydro-1H-pyrrol-2-one L-lactate]",EC50,[1]; [3],1.2 nM
same,EC50,[1]; [4],< 1000 nM
same,inhibition at 0.04 µM,[2],66%
"C[C@@H]1CN(CC(=O)N2CC(C)(C)c3ncc(Cc4ccc(F)cc4F)cc32)[C@@H](CN2CC(C)(C)CC2=O)CN1 [Example 30, 1-{[(2R,5R)-1-(2-{6-[(2,4-Difluorophenyl)methyl]-3,3-dimethyl-1H,2H,3H-pyrrolo[3,2-b]pyridin-1-yl}-2-oxoethyl)-5-methylpiperazin-2-yl]methyl}-4,4-dimethylpyrrolidin-2-one dihydrochloride]",EC50,[1]; [3],1.1 nM
same,EC50,[1]; [5],< 1000 nM
same,inhibition at 0.04 µM,[2],70%
"C[C@@H]1CN(CC(=O)N2CC(C)(C)c3cnc(Cc4ccc(F)cc4F)cc32)[C@@H](CN2C[C@H](C)N(C)CC2=O)CN1 [Example 81, (5S)-1-{[(2R,5R)-1-(2-{6-[(2,4-Difluorophenyl)methyl]-3,3-dimethyl-1H,2H,3H-pyrrolo[3,2-c]pyridin-1-yl}-2-oxoethyl)-5-methylpiperazin-2-yl]methyl}-4,5-dimethylpiperazin-2-one dihydrochloride]",EC50,[1]; [3],2.8 nM
same,EC50,[1]; [4],< 1000 nM
same,inhibition at 0.04 µM,[2],52%
"C[C@@H]1CN(CC(=O)N2CC(C)(C)c3ncc(Cc4ccc(F)cc4F)cc32)[C@@H](CN2C[C@H](C)N(C)CC2=O)CN1 [Example 98, (5S)-1-{[(2R,5R)-1-(2-{6-[(2,4-Difluorophenyl)methyl]-3,3-dimethyl-1H,2H,3H-pyrrolo[3,2-b]pyridin-1-yl}-2-oxoethyl)-5-methylpiperazin-2-yl]methyl}-4,5-dimethylpiperazin-2-one dihydrochloride]",EC50,[1]; [3],3.5 nM
same,EC50,[1]; [4],< 1000 nM
same,inhibition at 0.04 µM,[2],39%
"COC[C@@H]1CN(C[C@H]2CN[C@H](C)CN2CC(=O)N2CC(C)(C)c3ncc(Cc4ccc(F)cc4)cc32)C(=O)CO1 [Example 102, (6S)-4-{[(2R,5R)-1-(2-{6-[(4-Fluorophenyl)methyl]-3,3-dimethyl-1H,2H,3H-pyrrolo[3,2-b]pyridin-1-yl}-2-oxoethyl)-5-methylpiperazin-2-yl]methyl}-6-(methoxymethyl)morpholin-3-one dihydrochloride]",EC50,[1]; [3],6.9 nM
same,EC50,[1]; [5],< 1000 nM
same,inhibition at 0.04 µM,[2],51%
"C[C@H]1CC(=O)N(C[C@H]2CN[C@H](C)CN2CC(=O)N2CC(C)(C)c3cnc(Cc4ccc(F)cc4F)cc32)C1 [Example 74, (4S)-1-{[(2R,5R)-1-(2-{6-[(2,4-Difluorophenyl)methyl]-3,3-dimethyl-1H,2H,3H-pyrrolo[3,2-c]pyridin-1-yl}-2-oxoethyl)-5-methylpiperazin-2-yl]methyl}-4-methylpyrrolidin-2-one dihydrochloride]",EC50,[1]; [3],1.8 nM
same,EC50,[1]; [4],< 1000 nM
same,inhibition at 0.04 µM,[2],71%
"CC1=C(C)C(=O)N(C[C@H]2CN[C@H](C)CN2CC(=O)N2CC(C)(C)c3cnc(Cc4ccc(F)cc4)cc32)C1 [Example 36, 1-{[(2R,5R)-1-(2-{6-[(4-Fluorophenyl)methyl]-3,3-dimethyl-1H,2H,3H-pyrrolo[3,2-c]pyridin-1-yl}-2-oxoethyl)-5-methylpiperazin-2-yl]methyl}-3,4-dimethyl-2,5-dihydro-1H-pyrrol-2-one dihydrochloride]",EC50,[1]; [3],1.7 nM
same,EC50,[1]; [4],< 1000 nM
same,inhibition at 0.04 µM,[2],74%
"C[C@@H]1CN(CC(=O)N2CC(C)(C)c3ncc(Cc4ccc(F)cc4F)cc32)[C@@H](CN2C(=O)CO[C@@H](C)[C@H]2C)CN1 [Example 100, (5R,6S)-4-{[(2R,5R)-1-(2-{6-[(2,4-Difluorophenyl)methyl]-3,3-dimethyl-1H,2H,3H-pyrrolo[3,2-b]pyridin-1-yl}-2-oxoethyl)-5-methylpiperazin-2-yl]methyl}-5,6-dimethylmorpholin-3-one dihydrochloride]",EC50,[1]; [3],1.9 nM
same,EC50,[1]; [4],< 1000 nM
same,inhibition at 0.04 µM,[2],41%
"C[C@@H]1CN(CC(=O)N2CC(C)(C)c3cnc(Cc4ccc(F)cc4)cc32)[C@@H](CN2C[C@H](C)OCC2=O)CN1 (single isomer, unassigned) [Example 18, (6R or 6S)-4-{[(2R,5R)-1-(2-{6-[(4-Fluorophenyl)methyl]-3,3-dimethyl-1H,2H,3H-pyrrolo[3,2-c]pyridin-1-yl}-2-oxoethyl)-5-methylpiperazin-2-yl]methyl}-6-methylmorpholin-3-one L-lactate]",EC50,[1]; [3],3.5 nM
same,EC50,[1]; [4],< 1000 nM
same,inhibition at 0.04 µM,[2],70%
"CCCC(F)(F)c1cc2c(cn1)C(C)(C)CN2C(=O)CN1C[C@@H](C)NC[C@@H]1CN1CC(C)(C)CC1=O [Example 38, 1-{[(2R,5R-1-{2-[6-(1,1-Difluorobutyl)-3,3-dimethyl-1H,2H,3H-pyrrolo[3,2-c]pyridin-1-yl]-2-oxoethyl}-5-methylpiperazin-2-yl]methyl}-4,4-dimethylpyrrolidin-2-one dihydrochloride]",EC50,[1]; [3],13 nM
same,EC50,[1]; [4],< 1000 nM
same,inhibition at 0.04 µM,[2],76%
